“Also recorded” adds a separate entry of the source. Read-outs that look alike come from different tables or passages of the source.
Experiments:
[1] = test system: varicella zoster virus (VZV); assay: VZV infection of cells treated with MAOIs; qRT-PCR of IE62 mRNA and IE proteins; type: cell-based; conditions: VZV-infected cells, 4 hrs, increasing amounts of drug; relative to DMSO treated cells
Method: The methods of Example 1 were followed.
(§1) Cell infections: For HSV, cells were infected with 0.1 plaque forming units (PFU) of HSV per cell for 24 hrs in the presence of 2 mM Tranylcypromine (TCP) or control DMSO. The resulting viral yields were determined by titer of infected cell lysates on Vero cell monolayers. VZV infections were performed as in Example 3.

[2] = test system: herpes simplex virus (HSV); assay: HSV infection of cells treated with MAOIs; qRT-PCR of HSV IE genes and IE proteins; type: cell-based, HSV-1 strain 17; conditions: HSV-infected cells, selected concentrations of drug; relative to DMSO treated cells
[3] = test system: HSV; conditions: 0.1 PFU HSV per cell, 24 hrs, 2 mM TCP vs DMSO
Method: as §1

[4] = test system: viral IE promoters (histone H3, H3K9 and H3K4 methylation); assay: Chromatin immunoprecipitation of viral IE promoters in MAOI-treated infected cells; type: cell-based; conditions: for nucleosomes bearing repressive marks on the viral IE promoters (histone H3 and H3K9 methylation): in the presence of drug
Method: Chromatin immunoprecipitations (ChIP) from extracts of control, HCF-1 depleted, and LSD1 depleted cells were done essentially as described (Narayanan et al., Proc. Natl. Acad. Sci. USA, 2007, 104, 10835-40). Recovered DNA was subjected to semi-quantitative PCR with dilutions of input DNA to insure linearity using PCR Supermix (Invitrogen, Carlsbad, Calif.) with the following conditions: 95° C. for 2 min followed by 20 cycles of 95° C. for 30 sec; 59° C. for 30 sec; 72° C. for 30 sec. The signal intensities of individual bands, resolved in ethidium bromide agarose gels, were calculated as a percentage of the intensity of the input extract after subtraction of the appropriate background antibody controls. Signal intensities of resolved bands were quantitated using a Kodak 4000MM Image Station.
Samples also were analyzed, in triplicate, by qPCR using ABI Sybr Green PCR Master Mix. For qPCR, samples were run on a ABI PRISM 7900HT with the following conditions: 95° C. for 10 min followed by 40 cycles of 95° C. for 15 sec; 57° C. for 15 sec; 72° C. for 30 sec. Results were analyzed using ABI SDS 2.3 software.
(§2) For treatment with MAOIs, cells were pretreated with the indicated concentration of drug for 4-5 hrs prior to infection and maintained throughout infection. Pargyline (p-8013) and Tranylcypromine (p-8511) were obtained from Sigma (St. Louis, Mo.).

[5] = Cellular protein controls and cellular toxicity in MAOI-treated infected cells; type: cell-based
Text: as §2

[6] = test system: HSV-1 (strain 17); assay: HSV reactivation: viral yield from explanted trigeminal ganglia of latently infected mice; type: cell-based, Balb/c mice
Method: (§3) Latently infected mice and trigeminal ganglia: Balb/c mice were infected with 5×10^5 PFU HSV-1 (strain 17) per eye after corneal scarification. Latently infected mice were sacrificed 30 days post clearance of the primary infection and trigeminal ganglia were rapidly explanted into culture in the presence or absence of TCP or control (DMSO or acyclovir). Post explant incubation as indicated, the ganglia were homogenized and briefly sonicated. The reactivated viral yield of each ganglia was determined by titering the clarified supernatant on Vero cells.
Statistical analyses: Statistical comparisons were made using Wilcoxon signed rank test (paired ganglia) with a statistical significance of <0.05; Kruskal-Wallis test with post hoc Dunn's multiple comparison test (drug titration and reversal) with a statistical significance of <0.025; Mann-Whitney U test with Dunn's post hoc adjustment (non-paired ganglia time course) with a statistical significance of <0.025; or Fischer's Exact Test with a statistical significance of <0.05. Analyses were made using Prism (V5.0a) and are expressed as the mean+/−s.e.m.
Non-paired ganglia time course statistic analysis: Comparisons were made between control (DMSO) and TCP treated ganglia on day 2 and day 4 post explant. Each comparison utilized a one-sided Mann-Whitney U test followed by application of the Dunn's post hoc adjustment to the p-values. Significant differences were found between DMSO and TCP on day 2 (p=0.0043) and on day 4 (p=0.0011). Both of these differences are still significant after applying the Dunn's adjustment as both are less than the alpha level (α=0.025). The Mann-Whitney tests used an exact p-value for small sample sizes. n=6 for each sample set.
Paired ganglia statistical analysis: Each data point was the result of a single ganglia divided and treated in the presence and absence of TCP. Therefore, a Wilcoxon signed rank test was used to assess differences between each treated and untreated sample. The significant difference was p=0.0002. This test used an exact p-value for small sample sizes with an α level of 0.05. n=16 for each sample set.
TCP titration statistical analysis: To determine at what concentration TCP that would produce a significant reduction in viral load, a Kruskal-Wallis (K-W) test with Dunn's post hoc comparison was used. The K-W test was appropriate due to the comparison of five samples of data that are not normally distributed. Significant differences were found between the five groups (p=0.0007, K-W=19.39). […] No significant difference was found between 1.0 and 1.5 or 1.5 and 2.0 mM data sets. n=5 for control, 0.5, 1.0, and 2.0 mM; n=6 for […].
TCP reversal statistical analysis: Viral yields from ganglia treated without TCP for 2 days, treated with TCP for 2 days, or treated with TCP for 2 days followed by incubation in the absence of drug for 3 days were compared using the K-W test followed by Dunn's post hoc comparisons. The K-W test was appropriate due to the comparison of three samples of data that are not nominally distributed. Significant differences were found between the groups ([…], K-W=10.3).

[7] = test system: HSV ICP8; assay: ICP8 immunofluorescence of explanted latently infected trigeminal ganglia; type: cell-based, Balb/c mice; conditions: for ganglia with ICP8 (+) neurons: explant 48 hrs in the presence of drug
Method: as §3
Immunofluorescence statistical analysis: Trigeminal ganglia (16 DMSO/Control, 15 acyclovir, and 15 TCP) were fixed at 48 hours post explants. Serial sections representing the entire ganglia were stained and scored by confocal microscopy.
Therefore, latently infected ganglia were explanted in the presence of DMSO (control vector), acyclovir (to prevent viral DNA replication and spread), or TCP for 48 hrs. Ganglia were fixed and sections were probed with antibodies to HSV ICP8, the viral-encoded single stranded binding protein.

[8] = test system: HSV IE mRNA (ICP27, ICP4); assay: Nested RT-PCR of viral IE mRNAs in explanted latently infected ganglia; type: cell-based, Balb/c mice; conditions: paired ganglia explanted 12 hrs; 100 μM acyclovir or 2 mM TCP
Method: For the detection of viral IE and cellular mRNAs post explant, 8 ganglia from HSV latently infected or mock infected Balb/c mice were explanted in the presence of DMSO, 100 μM acyclovir, or 2 mM TCP for the indicated times. cDNAs were prepared from total RNA and amplified by qPCR (cellular Sp1 and TBP controls) or nested PCR (viral IE). Primer sets for the nested RT-PCR were as follows:
cDNA samples were normalized to one another according to the level of cellular control Sp1 mRNA. To insure linearity and sensitivity of nested PCR reactions, samples were amplified in parallel with dilutions of cDNA prepared from 3T3 cells infected with HSV at 6.4×10^−5 pfu/cell for 4 hrs. PCR products were resolved in agarose gels and quantitated using Kodak Image Station 4000MM Digital Imaging System.

[9] = test system: Adenovirus Type 5; conditions: HeLa cells, 2 mM, 5 hours prior to infection, 2 or 4 hours infection
Method: Viral infection and treatment with TCP: HeLa cells (2×10^6) were treated with control DMSO (D) or 2 mM Tranylcypromine (T) for 5 hours prior to infection with various amounts of Adenovirus Type 5 (1.2×10^8, 2.3×10^8, and 4.5×10^8 NAS IU) for 2 or 4 hours. Equal amounts of infected cell lysates were resolved by SDS-PAGE and Western blotted with anti-E1A, anti-LSD1, and anti-β tubulin antibodies. HEK293 and uninfected HeLa cell lysates represented E1A positive and negative controls.
HeLa cells (2×10^6) were treated with control DMSO (D) or various concentrations of Tranylcypromine (TCP) for 5 hours prior to infection with 2.3×10^9 NAS IU of adenovirus Type 5 for 2 hours. Equal amounts of infected cell lysates were resolved by SDS-PAGE and Western blotted with anti-E1A, anti-β Tubulin, and anti-TBP antibodies.

N[C@@H]1C[C@H]1c1ccccc1 (racemic) [TCP, Tranylcypromine]
viral mRNA (IE62) and IE proteins [1]: dose dependent decrease | viral mRNA (HSV IE genes) and IE proteins [2]: dose dependent decrease | reduction of viral yields [3]: ~1000 fold | histone H3 and H3K9 trimethylation on viral IE promoters ([4]; in the presence of TCP): substantial increase | level of H3K4 trimethylation on viral IE promoters ([4]; in the presence of TCP): did not significantly change | nucleosomes bearing repressive marks on the viral IE promoters (histone H3 and H3K9 methylation) [4]: accumulated | cellular toxicity ([5]; VZV and HSV infected cells treated with inhibitor): no significant cellular toxicity | reduction in viral load vs control (DMSO) ([6]; 0.5 mM TCP, 2 days explant, Dunn's post hoc): did not | reduction in viral load vs control (DMSO) ([6]; 1.0 mM TCP, 2 days explant, Dunn's post hoc p<0.05): showed significant differences | reduction in viral load vs control (DMSO) ([6]; 1.5 mM TCP, 2 days explant, Dunn's post hoc p<0.05): showed significant differences | viral reactivation following drug removal (TCP-R) ([6]; 2 mM TCP 2 days, then 3 days in the absence of drug): high level of viral reactivation; also recorded: HSV reactivation | reduction in viral load vs control (DMSO) ([6]; 2.0 mM TCP, 2 days explant, Dunn's post hoc p<0.05): showed significant differences | viral reactivation (viral yield), paired ganglia ([6]; each half of a ganglia explanted with or without 2 mM TCP, 2 days, p=0.0002, n=16): inhibition of viral reactivation; also recorded: decrease in viral yield | reactivation of HSV-1 (viral yield), non-paired ganglia time course ([6]; explant 2 or 4 days, 2 mM TCP vs DMSO, p=0.0043 (day 2), 0.0011 (day 4), n=6): significantly reduced; also recorded: decrease in viral yield | HSV reactivation at various (lower) levels of TCP ([6]; titration of TCP, 2 days explant): lower levels also were effective; also recorded: inhibition of HSV reactivation | odds of viral reactivation, DMSO treated vs TCP treated samples (Odds Ratio) ([7]; 48 hours post explant): 60.6667 times higher | odds of viral reactivation, acyclovir treated vs TCP treated samples (Odds Ratio) ([7]; 48 hours post explant): 42.0000 times higher | ganglia with ICP8 (+) neurons [7]: 1 of 15 | ICP27 mRNA level [8]: not significantly above that of background controls | expression of the adenovirus IE protein E1A [9]: inhibits the expression

C#CCN(C)Cc1ccccc1 [Pargyline]
viral mRNA (IE62) and IE proteins [1]: dose dependent decrease | viral mRNA (HSV IE genes) and IE proteins [2]: dose dependent decrease | nucleosomes bearing repressive marks on the viral IE promoters (histone H3 and H3K9 methylation) [4]: accumulated | cellular toxicity [5]: no significant cellular toxicity

Nc1nc2c(ncn2COCCO)c(=O)[nH]1 [acyclovir]
odds of viral reactivation, DMSO treated vs acyclovir treated samples (Odds Ratio) ([7]; 48 hours post explant): 1.4444 times higher | ganglia with ICP8 (+) neurons [7]: 9 of 12 | ICP27 mRNA level [8]: readily detected

Reference: patent publication US9499821B2, “Preventing or treating viral infection using an inhibitor of the LSD1 protein, a MAO inhibitor or an inhibitor of LSD1 and a MAO inhibitor” (The United States of America, as represented by the …, priority 2008, dated 2016)
